Data published in PubChem BioAssay AID2060891 (Molecular Pharmacology Branch, DTP, NCI, 2025).
pIC50: −log10 of the molar value.

Tested on: K98450-129-R-PDC complex spheroid growth, percent test/control
Assay: Anticancer human tumor K98450-129-R-PDC patient-derived colon adenocarcinoma cell line growth inhibition [RAS]
Settings: for pIC50: curve of first compound; for viability, T/C: stronger effect = lower value; active means viability on the fitted dose curve at most 10% of control; inactive means the rest
Method in brief: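 Multi-cell-type spheroids: tumor cells plus HUVEC endothelial cells and mesenchymal stem cells. RAS-pathway inhibitors were combined with targeted agents, each dosed in half-log steps down from clinical Cmax, or from 10 microM when Cmax was unknown.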
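Further: spheroids exposed to agents for seven days before the viability readout.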
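Wherever viability, T/C is given: luminescence used as a proxy for viable cell amount.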

CCN1CCN(Cc2ccc(Nc3ncc(F)c(-c4cc(F)c5nc(C)n(C(C)C)c5c4)n3)nc2)CC1 + CCn1c(-c2cccnc2C(C)OC)c2c3cc(ccc31)N1CCOC(CC(NC(=O)C(C(C)C)N(C)C(=O)C3(F)CCN(C(=O)C#CC(C)(C)N(C)C)CC3)C(=O)N3CCCC(N3)C(=O)OCC(C)(C)C2)C1
7.88: pIC50 (second compound 0.003 µM)
inactive: viability, T/C (second compound 0.000949 µM, first compound 0.00316 µM) 72.8% | viability, T/C (second compound 0.000949 µM, first compound 0.01 µM) 68.7% | viability, T/C (second compound 0.000949 µM, first compound 0.0316 µM) 70.3% | viability, T/C (second compound 0.000949 µM, first compound 0.1 µM) 54.4% | viability, T/C (second compound 0.000949 µM, first compound 0.316 µM) 44.9% | viability, T/C (second compound 0.000949 µM, first compound 1 µM) 52.2% | viability, T/C (second compound 0.003 µM, first compound 0.00316 µM) 60% | viability, T/C (second compound 0.003 µM, first compound 0.01 µM) 52.6% | viability, T/C (second compound 0.003 µM, first compound 0.0316 µM) 48.2% | viability, T/C (second compound 0.003 µM, first compound 0.1 µM) 39.2% | viability, T/C (second compound 0.003 µM, first compound 0.316 µM) 43% | viability, T/C (second compound 0.003 µM, first compound 1 µM) 47.4% | viability, T/C (second compound 0.00949 µM, first compound 0.00316 µM) 49.7% | viability, T/C (second compound 0.00949 µM, first compound 0.01 µM) 41.7% | viability, T/C (second compound 0.00949 µM, first compound 0.0316 µM) 38.9% | viability, T/C (second compound 0.00949 µM, first compound 0.1 µM) 34.5% | viability, T/C (second compound 0.00949 µM, first compound 0.316 µM) 36.6% | viability, T/C (second compound 0.00949 µM, first compound 1 µM) 43.4% | viability, T/C (second compound 0.03 µM, first compound 0.00316 µM) 37.6% | viability, T/C (second compound 0.03 µM, first compound 0.01 µM) 37.6% | viability, T/C (second compound 0.03 µM, first compound 0.0316 µM) 34.3% | viability, T/C (second compound 0.03 µM, first compound 0.1 µM) 35.3% | viability, T/C (second compound 0.03 µM, first compound 0.316 µM) 43.8% | viability, T/C (second compound 0.03 µM, first compound 1 µM) 45.9% | viability, T/C (second compound 0.0949 µM, first compound 0.00316 µM) 39.6% | viability, T/C (second compound 0.0949 µM, first compound 0.01 µM) 34.4% | viability, T/C (second compound 0.0949 µM, first compound 0.0316 µM) 34.5% | viability, T/C (second compound 0.0949 µM, first compound 0.1 µM) 32.1% | viability, T/C (second compound 0.0949 µM, first compound 0.316 µM) 38.9% | viability, T/C (second compound 0.0949 µM, first compound 1 µM) 48.8% | viability, T/C (second compound 0.3 µM, first compound 0.00316 µM) 30.8% | viability, T/C (second compound 0.3 µM, first compound 0.01 µM) 32.1% | viability, T/C (second compound 0.3 µM, first compound 0.0316 µM) 32.1% | viability, T/C (second compound 0.3 µM, first compound 0.1 µM) 28.6% | viability, T/C (second compound 0.3 µM, first compound 0.316 µM) 36.1% | viability, T/C (second compound 0.3 µM, first compound 1 µM) 41.8%
> 8.50: pIC50 (second compound 0.00949 µM) | pIC50 (second compound 0.03 µM) | pIC50 (second compound 0.0949 µM) | pIC50 (second compound 0.3 µM)
6.62: pIC50 (second compound 0.000949 µM)
